Measurements taken from US9175011B2, “Morpholino substituted urea or carbamate derivatives as MTOR inhibitors” (CELLZOME LIMITED, priority 2011, dated 2015).

Experiments:
PI3K beta (PI3Kb) = target: T1, PI3K beta (PI3Kb) (Homo sapiens, UniProt P42338); test: kinobeads assay, PI3K beta; type: binding; conditions: Jurkat cell lysate, read-out: Inhibition values (IC50) PI3Kb
T1 construct: Jurkat cells were homogenized in a Potter S homogenizer in lysis buffer; endogenous in cells; host or cells: Jurkat, clone E6-1 (ATCC TIB-152) lysate
How it was run: (§1)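 Readout by specific-antibody dot blot of kinase pulled down from Jurkat lysate on mixed immobilized-ligand beads. Compounds competed for binding over three hours in a cold room; IC50 taken from dose-response curves.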

PI3K delta (PI3Kd) = target: T2, PI3K delta (PI3Kd) (Homo sapiens, UniProt O00329); test: kinobeads assay, PI3K delta; type: binding; conditions: Jurkat cell lysate, read-out: Inhibition values (IC50) PI3Kd
T2 construct: Jurkat cells were homogenized in a Potter S homogenizer in lysis buffer; endogenous in cells; host or cells: Jurkat, clone E6-1 (ATCC TIB-152) lysate
How it was run: as §1

[1] = system: S6RP serine-240/244 phosphorylation; test: In vitro phospho-S6 cellular assay (HEK293T/17); type: cell-based; conditions: Homo sapiens; HEK293T/17 cells, 2 hours, pS6RP Ser240/244; read-out: Inhibition values (IC50) pS6
How it was run: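 HEK293T/17 cells in DMEM with 2% FCS were exposed to 8 compound concentrations (0.1% DMSO) for 2 h at 37 °C, then lysed. pS6RP Ser240/244 or pAkt Ser473 in the lysates was quantified by MSD sandwich electrochemiluminescence. IC50 was obtained by sigmoidal variable-slope nonlinear regression.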

mTOR = target: T3, mTOR (Homo sapiens, UniProt P42345); test: mTOR kinobeads assay (Jurkat cell lysate, dot blot detection); type: binding; conditions: read-out: Inhibition values (IC50) mTor
T3 construct: Jurkat cells were homogenized in a Potter S homogenizer in lysis buffer; endogenous in cells; host or cells: Jurkat, clone E6-1 (ATCC TIB-152) lysate
How it was run: as §1

[2] = system: Akt serine-473 phosphorylation; test: In vitro phospho-Akt cellular assay (HEK293T/17); type: cell-based; conditions: Homo sapiens; HEK293T/17 cells, 2 hours, pAkt Ser 473; read-out: Inhibition values (IC50) pAkt
Excerpt: Activation of mTOR signaling results in phosphorylation of several downstream targets. In cells, mTOR exists in two different protein complexes. The mTOR Complex-1 (mTORC1) phosphorylates and activates S6 Kinase 1 (S6K1) and S6 Kinase 2 (S6K2) (also known as p70S6K) which then phosphorylate S6 Ribosomal Protein (S6RP) (also known as RPS6)3. S6RP is phosphorylated on serine 235, senile 236, serine 240 and serine 244 by both pS6K1 and pS6K2. The mTOR Complex-2 (mTORC2) phosphorylates AKT on serine 473 which activates the AKT signaling pathway.
The assay measures a test compound's inhibition of S6RP serine-240/244 phosphorylation and inhibition of Akt serine-473 phosphorylation in human embryonic kidney derived HEK293T/17 cells (ATCC CRL-11268).
The HEK293T/17 cell line is maintained in DMEM media (Invitrogen catalogue number 41965-039) supplemented with 10% FCS at 37° C. in a 5% CO2 humidified incubator. Cells are seeded in 96-well plates at 40,000 cells/well (pS6RP S240/244 assay) or 80,000 cells/well (pAkt 5473 assay) in 90 μl growth media (DMEM, 2% FCS). Plates are incubated for 1 hour in a humidified incubator to allow the cells to adhere. Cells are treated with 8 concentrations of test compounds or DMSO alone for controls (final DMSO concentration 0.1%) and incubated at 37° C. for 2 hours. Then 20 μl of 5× concentrated lysis buffer (750 mM NaCl, 100 mM Tris pH7.4, 5 mM ADTA, 5 mM EGTA, 5% Triton X-100) is added, plates are sealed and incubated for 15 minutes at 4° C. with gentle shaking After cell lysis, 25 μl cell lysate is transferred to a MesoScale plate coated with an antibody to pS6RP Ser240/244 (MesoScale Discovery K150DGD-3) or an antibody to pAkt Ser 473 (MesoScale Discovery K151DGD-3). Plates have been blocked before by incubation with 150 μl MesoScale Discovery Blocking Solution-A for 1 hour at room temperature followed by washing with 150 μl 1×Tris wash buffer per well. After the transfer of the cell lysate to the MSD plate, the pS6RP (or pAkt) protein is captured on the coated antibody by incubation at room temperature for 1 hour with gentle shaking. After the capture step the plate is washed three times with 150 μl of 1× Tris wash buffer per well. Then 25 μl detection antibody conjugated with a Sulfo-Tag is added and incubated for 1 hour at room temperature with gentle shaking. Subsequently the antibody solution is removed and the plate is washed 3 times with 150 μl 1×Tris wash buffer per well and 150 μl Read buffer is added. The plates are analysed on a MSD 2400 Plate Reader (MesoScale Discovery). Data analysis is performed using nonlinear regression for a sigmoidal dose-response with a variable slope.

[3] = target: T4, DNA-dependent protein kinase (DNA-PK) (Homo sapiens, UniProt P78527); test: kinobeads assay, DNA-PK; type: binding; conditions: Jurkat cell lysate, read-out: Inhibition values (IC50) DNA-PK
T4 construct: Jurkat cells were homogenized in a Potter S homogenizer in lysis buffer; endogenous in cells; host or cells: Jurkat, clone E6-1 (ATCC TIB-152) lysate
How it was run: as §1

PI3K gamma (PI3Kg) = target: T5, PI3K gamma (PI3Kg) (Homo sapiens, UniProt P48736); test: kinobeads assay, PI3K gamma; type: binding; conditions: Jurkat cell lysate, read-out: Inhibition values (IC50) PI3Kg
T5 construct: Jurkat cells were homogenized in a Potter S homogenizer in lysis buffer; endogenous in cells; host or cells: Jurkat, clone E6-1 (ATCC TIB-152) lysate
How it was run: as §1

PI3K alpha (PI3Kα) = target: T6, PI3K alpha (PI3Kα) (Homo sapiens, UniProt P42336); test: kinobeads assay, PI3K alpha; type: binding; conditions: Jurkat cell lysate, read-out: Inhibition values (IC50) PI3Ka
T6 construct: Jurkat cells were homogenized in a Potter S homogenizer in lysis buffer; endogenous in cells; host or cells: Jurkat, clone E6-1 (ATCC TIB-152) lysate
How it was run: as §1

T2 sequence (O00329 whole entry): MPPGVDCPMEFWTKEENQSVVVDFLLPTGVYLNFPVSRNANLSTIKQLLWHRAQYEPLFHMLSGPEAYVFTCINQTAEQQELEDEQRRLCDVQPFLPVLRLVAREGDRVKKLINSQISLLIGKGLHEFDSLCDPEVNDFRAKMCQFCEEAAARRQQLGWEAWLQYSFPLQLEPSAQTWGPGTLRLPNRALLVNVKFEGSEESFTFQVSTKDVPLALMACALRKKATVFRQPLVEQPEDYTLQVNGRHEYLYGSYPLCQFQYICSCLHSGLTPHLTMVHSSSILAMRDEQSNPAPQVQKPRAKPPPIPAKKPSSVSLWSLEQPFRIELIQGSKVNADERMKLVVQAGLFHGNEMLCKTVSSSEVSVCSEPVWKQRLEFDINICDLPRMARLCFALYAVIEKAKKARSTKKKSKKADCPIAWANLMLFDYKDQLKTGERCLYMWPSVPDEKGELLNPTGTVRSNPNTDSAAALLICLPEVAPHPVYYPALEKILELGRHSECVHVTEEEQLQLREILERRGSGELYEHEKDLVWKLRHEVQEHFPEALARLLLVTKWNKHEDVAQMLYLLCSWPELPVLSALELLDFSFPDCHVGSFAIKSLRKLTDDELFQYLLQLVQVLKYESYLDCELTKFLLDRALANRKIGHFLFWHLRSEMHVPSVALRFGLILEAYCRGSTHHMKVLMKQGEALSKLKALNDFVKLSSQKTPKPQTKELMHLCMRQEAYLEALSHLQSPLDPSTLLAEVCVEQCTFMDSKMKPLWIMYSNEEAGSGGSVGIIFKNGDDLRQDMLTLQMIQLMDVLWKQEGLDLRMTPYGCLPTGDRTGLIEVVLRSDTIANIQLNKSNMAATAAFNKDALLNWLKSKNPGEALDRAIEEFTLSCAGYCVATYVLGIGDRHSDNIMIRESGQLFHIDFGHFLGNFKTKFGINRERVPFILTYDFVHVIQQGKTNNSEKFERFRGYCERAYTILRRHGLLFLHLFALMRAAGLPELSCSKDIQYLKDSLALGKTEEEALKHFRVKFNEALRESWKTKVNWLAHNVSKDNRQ
T2 sequence (P27986 whole entry partner): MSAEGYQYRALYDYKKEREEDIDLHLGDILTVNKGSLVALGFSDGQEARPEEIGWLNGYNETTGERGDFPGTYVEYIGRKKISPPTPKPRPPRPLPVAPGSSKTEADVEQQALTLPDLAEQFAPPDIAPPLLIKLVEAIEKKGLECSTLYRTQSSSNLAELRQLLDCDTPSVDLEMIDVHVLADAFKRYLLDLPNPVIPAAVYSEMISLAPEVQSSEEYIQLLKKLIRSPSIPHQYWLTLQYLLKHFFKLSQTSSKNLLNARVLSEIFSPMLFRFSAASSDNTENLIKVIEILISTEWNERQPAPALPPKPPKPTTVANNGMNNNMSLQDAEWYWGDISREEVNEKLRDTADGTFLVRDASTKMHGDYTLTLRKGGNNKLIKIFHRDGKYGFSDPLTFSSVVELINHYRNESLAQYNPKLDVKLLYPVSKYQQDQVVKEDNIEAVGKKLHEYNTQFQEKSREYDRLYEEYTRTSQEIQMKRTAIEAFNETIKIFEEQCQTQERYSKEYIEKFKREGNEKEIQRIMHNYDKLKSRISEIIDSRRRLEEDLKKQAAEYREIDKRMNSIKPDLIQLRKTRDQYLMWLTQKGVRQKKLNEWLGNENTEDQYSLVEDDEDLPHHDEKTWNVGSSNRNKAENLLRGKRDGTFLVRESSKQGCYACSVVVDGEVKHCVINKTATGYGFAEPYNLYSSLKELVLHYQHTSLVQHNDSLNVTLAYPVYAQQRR
T6 sequence (P42336 whole entry): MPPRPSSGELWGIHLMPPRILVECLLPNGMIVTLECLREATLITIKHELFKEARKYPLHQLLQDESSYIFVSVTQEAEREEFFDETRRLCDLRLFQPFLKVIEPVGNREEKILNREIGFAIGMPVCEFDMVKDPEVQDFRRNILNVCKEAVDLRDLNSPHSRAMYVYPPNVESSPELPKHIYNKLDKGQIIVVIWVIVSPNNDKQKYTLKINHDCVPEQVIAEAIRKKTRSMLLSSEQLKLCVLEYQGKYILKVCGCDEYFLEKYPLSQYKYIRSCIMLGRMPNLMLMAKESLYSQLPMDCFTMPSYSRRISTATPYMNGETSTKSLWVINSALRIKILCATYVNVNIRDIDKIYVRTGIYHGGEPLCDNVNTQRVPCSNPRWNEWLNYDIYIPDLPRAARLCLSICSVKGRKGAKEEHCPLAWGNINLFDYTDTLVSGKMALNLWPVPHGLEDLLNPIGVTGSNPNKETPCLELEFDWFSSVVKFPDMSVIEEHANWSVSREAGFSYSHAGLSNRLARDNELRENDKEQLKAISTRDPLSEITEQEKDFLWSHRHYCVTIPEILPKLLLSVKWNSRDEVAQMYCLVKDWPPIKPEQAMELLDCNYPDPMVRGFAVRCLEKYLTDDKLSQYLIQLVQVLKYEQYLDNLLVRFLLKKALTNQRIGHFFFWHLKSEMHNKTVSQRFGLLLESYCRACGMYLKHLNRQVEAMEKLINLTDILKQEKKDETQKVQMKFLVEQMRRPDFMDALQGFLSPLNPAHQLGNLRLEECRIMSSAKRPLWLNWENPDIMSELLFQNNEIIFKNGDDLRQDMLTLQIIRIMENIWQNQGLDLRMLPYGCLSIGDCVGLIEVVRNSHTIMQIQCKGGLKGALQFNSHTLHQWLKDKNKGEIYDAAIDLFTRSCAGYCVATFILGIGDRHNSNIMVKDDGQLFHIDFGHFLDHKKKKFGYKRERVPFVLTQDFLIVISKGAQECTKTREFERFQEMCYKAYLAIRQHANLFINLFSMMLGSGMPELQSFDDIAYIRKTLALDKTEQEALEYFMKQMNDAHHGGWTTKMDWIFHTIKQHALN
T6 sequence (P27986 whole entry partner): as the sequence (P27986 whole entry partner) above
T5 sequence (P48736 whole entry): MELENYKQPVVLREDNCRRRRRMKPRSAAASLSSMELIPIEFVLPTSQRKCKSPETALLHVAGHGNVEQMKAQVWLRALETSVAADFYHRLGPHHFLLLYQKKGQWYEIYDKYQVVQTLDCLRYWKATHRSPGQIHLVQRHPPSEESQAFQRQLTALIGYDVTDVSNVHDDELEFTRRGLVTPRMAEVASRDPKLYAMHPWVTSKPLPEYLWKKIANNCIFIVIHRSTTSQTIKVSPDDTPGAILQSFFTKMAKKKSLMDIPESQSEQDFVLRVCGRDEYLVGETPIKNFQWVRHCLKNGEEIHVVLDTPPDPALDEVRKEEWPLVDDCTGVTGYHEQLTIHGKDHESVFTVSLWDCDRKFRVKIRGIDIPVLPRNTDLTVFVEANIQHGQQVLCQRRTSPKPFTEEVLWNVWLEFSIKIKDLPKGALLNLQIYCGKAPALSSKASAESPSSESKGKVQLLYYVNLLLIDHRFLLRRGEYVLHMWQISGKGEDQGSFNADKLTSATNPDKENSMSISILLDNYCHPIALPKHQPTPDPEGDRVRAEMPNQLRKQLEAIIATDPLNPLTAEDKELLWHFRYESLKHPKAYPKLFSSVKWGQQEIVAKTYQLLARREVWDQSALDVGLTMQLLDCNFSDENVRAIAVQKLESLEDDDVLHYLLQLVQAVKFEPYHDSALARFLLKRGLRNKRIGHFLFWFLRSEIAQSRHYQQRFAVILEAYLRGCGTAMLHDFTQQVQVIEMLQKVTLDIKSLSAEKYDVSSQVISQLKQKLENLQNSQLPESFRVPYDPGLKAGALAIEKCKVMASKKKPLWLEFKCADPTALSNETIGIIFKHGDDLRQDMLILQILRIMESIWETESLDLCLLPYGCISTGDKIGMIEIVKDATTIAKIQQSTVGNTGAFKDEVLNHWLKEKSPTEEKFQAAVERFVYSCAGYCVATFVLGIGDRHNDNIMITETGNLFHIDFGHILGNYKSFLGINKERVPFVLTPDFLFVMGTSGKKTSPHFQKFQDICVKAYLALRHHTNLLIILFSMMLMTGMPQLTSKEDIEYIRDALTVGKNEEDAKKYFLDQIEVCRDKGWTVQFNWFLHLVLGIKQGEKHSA
T1 sequence (P42338 whole entry): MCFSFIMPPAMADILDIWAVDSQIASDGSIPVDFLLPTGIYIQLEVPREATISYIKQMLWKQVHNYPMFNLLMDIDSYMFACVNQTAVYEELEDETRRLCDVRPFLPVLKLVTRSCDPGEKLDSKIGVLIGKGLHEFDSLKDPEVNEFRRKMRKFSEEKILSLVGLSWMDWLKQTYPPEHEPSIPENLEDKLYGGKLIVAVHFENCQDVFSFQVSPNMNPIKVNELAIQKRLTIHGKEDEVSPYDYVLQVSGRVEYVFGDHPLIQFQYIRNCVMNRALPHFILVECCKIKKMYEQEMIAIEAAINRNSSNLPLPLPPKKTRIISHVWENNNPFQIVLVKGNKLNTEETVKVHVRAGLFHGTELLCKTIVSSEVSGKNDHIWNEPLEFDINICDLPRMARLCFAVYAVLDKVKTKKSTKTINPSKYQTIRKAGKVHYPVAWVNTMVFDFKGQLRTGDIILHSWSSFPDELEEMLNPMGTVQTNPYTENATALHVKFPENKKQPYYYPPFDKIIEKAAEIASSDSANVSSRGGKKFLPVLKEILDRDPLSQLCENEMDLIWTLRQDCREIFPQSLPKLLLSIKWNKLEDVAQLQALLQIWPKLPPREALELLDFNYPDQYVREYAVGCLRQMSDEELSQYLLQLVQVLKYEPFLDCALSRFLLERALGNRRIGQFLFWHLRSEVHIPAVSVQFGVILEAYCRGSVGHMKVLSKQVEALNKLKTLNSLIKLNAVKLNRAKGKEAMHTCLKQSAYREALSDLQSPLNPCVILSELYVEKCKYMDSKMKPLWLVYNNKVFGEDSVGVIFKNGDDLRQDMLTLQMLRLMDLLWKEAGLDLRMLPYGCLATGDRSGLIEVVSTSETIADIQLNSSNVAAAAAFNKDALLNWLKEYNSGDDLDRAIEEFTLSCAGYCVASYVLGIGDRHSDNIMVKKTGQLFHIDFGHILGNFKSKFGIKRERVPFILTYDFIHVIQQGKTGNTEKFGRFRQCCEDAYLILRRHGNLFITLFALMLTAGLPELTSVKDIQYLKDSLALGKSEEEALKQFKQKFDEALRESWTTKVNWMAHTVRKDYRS
T1 sequence (P27986 whole entry partner): as the sequence (P27986 whole entry partner) above

SMILES	IC50 (PI3K beta (PI3Kb))	IC50 (PI3K delta (PI3Kd))	IC50 [1]	IC50 (mTOR)	IC50 [2]	IC50 [3]	IC50 (PI3K gamma (PI3Kg))	IC50 (PI3K alpha (PI3Kα))
C[C@H]1COCCN1c1nc(-c2ccc(NC(=O)NCCO)cc2)nc(-c2ccccc2S(C)(=O)=O)n1 [Example 4, (S)-1-(2-hydroxyethyl)-3-(4-(4-(3-methylmorpholino)-6-(2-(methylsulfonyl)phenyl)-1,3,5-triazin-2-yl)phenyl)urea]	> 10 µM	> 10 µM	< 0.1 µM	< 0.1 µM	< 0.1 µM	> 10 µM	> 10 µM	> 10 µM
C[C@H]1COCCN1c1nc(-c2ccc(NC(=O)NCCO)cc2)nc(-c2cc(F)ccc2S(C)(=O)=O)n1 [Example 6, (S)-1-(4-(4-(5-fluoro-2-(methylsulfonyl)phenyl)-6-(3-methylmorpholino)-1,3,5-triazin-2-yl)phenyl)-3-(2-hydroxyethyl)urea]	> 10 µM	> 10 µM	0.1 to 1 µM	< 0.1 µM	< 0.1 µM	> 10 µM	> 10 µM	> 10 µM
CCNC(=O)Nc1ccc(-c2nc(-c3ccccc3S(C)(=O)=O)nc(N3CCOC[C@@H]3C)n2)cc1 [Example 10, (S)-1-ethyl-3-(4-(4-(3-methylmorpholino)-6-(2-(methylsulfonyl)phenyl)-1,3,5-triazin-2-yl)phenyl)urea]	> 10 µM	> 10 µM	< 0.1 µM	< 0.1 µM	< 0.1 µM	> 10 µM	> 10 µM	> 10 µM
C[C@H]1COCCN1c1nc(-c2ccc(NC(=O)NC3CC3)cc2)nc(-c2cc(F)ccc2S(C)(=O)=O)n1 [Example 5, (S)-1-cyclopropyl-3-(4-(4-(5-fluoro-2-(methylsulfonyl)phenyl)-6-(3-methylmorpholino)-1,3,5-triazin-2-yl)phenyl)urea]	> 10 µM	> 10 µM	< 0.1 µM	0.1 to 1 µM	< 0.1 µM	> 10 µM	> 10 µM	> 10 µM
C[C@H]1COCCN1c1nc(-c2ccc(NC(=O)NCC(F)F)cc2)nc(-c2ccccc2S(C)(=O)=O)n1 [Example 8, (S)-1-(2,2-difluoroethyl)-3-(4-(4-(3-methylmorpholin)-6-(2-(methylsulfonyl)phenyl)-1,3,5-triazin-2-yl)phenyl)urea]	> 10 µM	> 10 µM	< 0.1 µM	< 0.1 µM	< 0.1 µM	> 10 µM	> 10 µM	> 10 µM
C[C@H]1COCCN1c1nc(-c2ccc(NC(=O)NCCF)cc2)nc(-c2ccccc2S(C)(=O)=O)n1 [Example 7, (S)-1-(2-fluoroethyl)-3-(4-(4-(3-methylmorpholino)-6-(2-(methylsulfonyl)phenyl)-1,3,5-triazin-2-yl)phenyl)urea]	> 10 µM	> 10 µM	< 0.1 µM	< 0.1 µM	< 0.1 µM	> 10 µM	> 10 µM	> 10 µM
C[C@H]1COCCN1c1nc(-c2ccc(NC(=O)NC3CC3)cc2)nc(-c2cccnc2S(C)(=O)=O)n1 [Example 24, (S)-1-cyclopropyl-3-(4-(4-(3-methylmorpholino)-6-(2-(methylsulfonyl)pyridin-3-yl)-1,3,5-triazin-2-yl)phenyl)urea]	1 to 10 µM	1 to 10 µM	< 0.1 µM	< 0.1 µM	< 0.1 µM	> 10 µM	> 10 µM	> 10 µM
C[C@H]1COCCN1c1nc(-c2ccc(NC(=O)NC3CC3)cc2)nc(-c2ccccc2S(C)(=O)=O)n1 [Example 1, (S)-1-cyclopropyl-3-(4-(4-(3-methylmorpholino)-6-(2-(methylsulfonyl)phenyl)-1,3,5-triazin-2-yl)phenyl)urea]	> 10 µM	> 10 µM	< 0.1 µM	< 0.1 µM	< 0.1 µM	> 10 µM	> 10 µM	> 10 µM
C[C@H]1COCCN1c1nc(-c2ccc(NC(=O)NC3COC3)cc2)nc(-c2ccccc2S(C)(=O)=O)n1 [Example 9, (S)-1-(4-(4-(3-methylmorpholin)-6-(2-(methylsulfonyl)phenyl)-1,3,5-triazin-2-yl)phenyl)-3-(oxetan-3-yl)urea]	> 10 µM	> 10 µM	0.1 to 1 µM	0.1 to 1 µM		> 10 µM	> 10 µM	> 10 µM
CC(C)CNC(=O)Nc1ccc(-c2nc(-c3ccccc3S(C)(=O)=O)nc(N3CCOC[C@@H]3C)n2)cc1 [Example 19, (S)-1-isobutyl-3-(4-(4-(3-methylmorpholino)-6-(2-(methylsulfonyl)phenyl)-1,3,5-triazin-2-yl)phenyl)urea]	> 10 µM	> 10 µM	0.1 to 1 µM	1 to 10 µM		> 10 µM	> 10 µM	> 10 µM
CNC(=O)Nc1ccc(-c2nc(-c3ccccc3S(C)(=O)=O)nc(N3CCOC[C@@H]3C)n2)cc1 [Example 14, (S)-1-methyl-3-(4-(4-(3-methylmorpholino)-6-(2-(methylsulfonyl)phenyl)-1,3,5-triazin-2-yl)phenyl)urea]	> 10 µM	> 10 µM	< 0.1 µM	0.1 to 1 µM	< 0.1 µM	> 10 µM	> 10 µM	> 10 µM
C[C@H]1COCCN1c1nc(-c2ccc(NC(=O)Nc3ccc(CO)cc3)cc2)nc(-c2ccccc2S(C)(=O)=O)n1 [Example 25, (S)-1-(4-(hydroxymethyl)phenyl)-3-(4-(4-(3-methylmorpholino)-6-(2-(methylsulfonyl)phenyl)-1,3,5-triazin-2-yl)phenyl)urea]	> 10 µM	> 10 µM	< 0.1 µM	0.1 to 1 µM		> 10 µM	> 10 µM	> 10 µM
C[C@H]1COCCN1c1nc(-c2ccc(NC(=O)Nc3ccncc3)cc2)nc(-c2ccccc2S(C)(=O)=O)n1 [Example 35, (S)-1-(4-(4-(3-methylmorpholino)-6-(2-(methylsulfonyl)phenyl)-1,3,5-triazin-2-yl)phenyl)-3-(pyridin-4-yl)urea]	> 10 µM	> 10 µM	< 0.1 µM	0.1 to 1 µM		> 10 µM	> 10 µM	> 10 µM
